Measurements: PubChem BioAssay (NCI)
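Growth conditions: 96-well plates. Treatment: test compound, 48 hours, 5 concentrations. Analysis: linear interpolation between bracketing concentrations; unreached endpoints set to highest concentration. Definition used: TGI = concentration required for complete inhibition of growth.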

How the values were obtained:
Assay in all cases: NCI tumour cell line growth inhibition, 48 h
[1] = tested on: 786-0 renal
[2] = tested on: A498 renal
[3] = tested on: A549 NSCLC
[4] = tested on: ACHN renal
[5] = tested on: BT-549 breast
[6] = tested on: CAKI-1 renal
[7] = tested on: CCRF-CEM leukemia
[8] = tested on: COLO 205 colon
[9] = tested on: DLD-1 colon
[10] = tested on: DMS 114 small cell lung
[11] = tested on: DMS 273 small cell lung
[12] = tested on: EKVX NSCLC
[13] = tested on: HCC-2998 colon
[14] = tested on: HCT-116 colon
[15] = tested on: HCT-15 colon
[16] = tested on: HL-60(TB) leukemia
[17] = tested on: HOP-18 NSCLC
[18] = tested on: HOP-62 NSCLC
[19] = tested on: HOP-92 NSCLC
[20] = tested on: HT29 colon
[21] = tested on: IGROV1 ovarian
[22] = tested on: K-562 leukemia
[23] = tested on: KM12 colon
[24] = tested on: KM20L2 colon
[25] = tested on: LOX IMVI melanoma
[26] = tested on: M19-MEL melanoma
[27] = tested on: MALME-3M melanoma
[28] = tested on: MCF7 breast
[29] = tested on: MDA-MB-231 breast
[30] = tested on: MOLT-4 leukemia
[31] = tested on: NCI-H226 lung
[32] = tested on: NCI-H23 lung
[33] = tested on: NCI-H460 lung
[34] = tested on: NCI-H522 lung
[35] = tested on: NCI/ADR-RES ovarian
[36] = tested on: OVCAR-3 ovarian
[37] = tested on: OVCAR-4 ovarian
[38] = tested on: OVCAR-5 ovarian
[39] = tested on: OVCAR-8 ovarian
[40] = tested on: P388 leukemia
[41] = tested on: P388/ADR leukemia
[42] = tested on: RPMI-8226 leukemia
[43] = tested on: RXF 393 renal
[44] = tested on: SF-268 CNS
[45] = tested on: SF-295 CNS
[46] = tested on: SF-539 CNS
[47] = tested on: SK-MEL-2 melanoma
[48] = tested on: SK-MEL-28 melanoma
[49] = tested on: SK-MEL-5 melanoma
[50] = tested on: SK-OV-3 ovarian
[51] = tested on: SN12C renal
[52] = tested on: SN12K1 renal
[53] = tested on: SNB-19 CNS
[54] = tested on: SNB-75 CNS
[55] = tested on: SNB-78 CNS
[56] = tested on: SR leukemia
[57] = tested on: SW-620 colon
[58] = tested on: U251 CNS
[59] = tested on: UACC-257 melanoma
[60] = tested on: UACC-62 melanoma
[61] = tested on: UO-31 renal
[62] = tested on: XF 498 CNS

CCCCCCCCCCCCCCCCCCOP(=O)([O-])OCC[N+](C)(C)C
TGI [1]: 0.169 µM
TGI [2]: > 46.4 µM
TGI [3]: 5.13 µM
TGI [4]: 0.37 µM
TGI [5]: 5.82 µM
TGI [6]: 22.8 µM
TGI [7]: 2.52 µM
TGI [8]: 0.5 µM
TGI [9]: 16.9 µM
TGI [10]: 26.8 µM
TGI [11]: 13.4 µM
TGI [12]: 8.29 µM
TGI [13]: 7.01 µM
TGI [14]: 3.12 µM
TGI [15]: 3.24 µM
TGI [16]: 5.83 µM
TGI [17]: 30.1 µM
TGI [18]: 1.38 µM
TGI [19]: 1.07 µM
TGI [20]: 2.2 µM
TGI [21]: 26.1 µM
TGI [22]: 10.4 µM
TGI [23]: 0.632 µM
TGI [24]: 12.5 µM
TGI [25]: 1.96 µM
TGI [26]: 16.3 µM
TGI [27]: 3.38 µM
TGI [28]: 3.11 µM
TGI [29]: 3.5 µM
TGI [30]: 5.89 µM
TGI [31]: 3.31 µM
TGI [32]: 30.4 µM
TGI [33]: 1.94 µM
TGI [34]: 1.46 µM
TGI [35]: 5.22 µM
TGI [36]: 2.79 µM
TGI [37]: 1.29 µM
TGI [38]: 6.82 µM
TGI [39]: 2.39 µM
TGI [40]: 15.1 µM
TGI [41]: 27.3 µM
TGI [42]: 2.64 µM
TGI [43]: 23.1 µM
TGI [44]: 2.21 µM
TGI [45]: 3.49 µM
TGI [46]: 2.59 µM
TGI [47]: 3.11 µM
TGI [48]: 42.2 µM
TGI [49]: 17.5 µM
TGI [50]: 43.4 µM
TGI [51]: 1.53 µM
TGI [52]: 26.9 µM
TGI [53]: 47.9 µM
TGI [54]: 1.7 µM
TGI [55]: 15.8 µM
TGI [56]: > 100 µM
TGI [57]: 6.66 µM
TGI [58]: 4.71 µM
TGI [59]: 25.6 µM
TGI [60]: 20.8 µM
TGI [61]: 36.1 µM
TGI [62]: 25.4 µM
